Measurements from ChEMBL document CHEMBL1201862, “PubChem BioAssay data set” (2004).
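Grown in 96-well plates, cells were treated for 48 hours with each compound at five concentrations. Insufficient inhibition: endpoint recorded as highest concentration tested. GI50 marks 50% less growth.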 Activity calls are given as the source filed them. Rule as the data show it: active = GI50 up to about 1.1 µM and inactive = higher. Where a SMILES comes first, the peptide text is derived from it. Bridges are numbered along the chain shown (N, C = ends). [ ]: non-standard residue; d: D form. The star is where a group is joined. ξ: configuration not given here. PhAc = O=C(Cc1ccccc1)*; ξP = O=C(O)C1CCCN1

Assays:
Experiment in all cases: NCI anticancer screen, dose series, 48 h
[1] = system: 786-0
[2] = system: ACHN
[3] = system: HL-60
[4] = system: HOP-62
[5] = system: HOP-92
[6] = system: K562
[7] = system: KM12
[8] = system: MDA-MB-231
[9] = system: MDA-N
[10] = system: MOLT-4
[11] = system: NCI-H226
[12] = system: NCI-H460
[13] = system: NCI/ADR-RES
[14] = system: OVCAR-3
[15] = system: OVCAR-5
[16] = system: SK-MEL-28
[17] = system: SK-MEL-2
[18] = system: SNB-19
[19] = system: UACC-62

Compound	GI50 [1]	GI50 [2]	GI50 [3]	GI50 [4]	GI50 [5]	GI50 [6]	GI50 [7]	GI50 [8]	GI50 [9]	GI50 [10]	GI50 [11]	GI50 [12]	GI50 [13]	GI50 [14]	GI50 [15]	GI50 [16]	GI50 [17]	GI50 [18]	GI50 [19]
COc1ccc(/C=C/C(=O)Oc2ccc(/C=C3\CCCCC3=O)cc2)cc1	> 100 µM (inactive)	> 100 µM (inactive)	12.6 µM (inactive)	23.1 µM (inactive)	> 66.1 µM (inactive)	> 100 µM (inactive)	56.1 µM (inactive)	40.9 µM (inactive)	> 100 µM (inactive)	2.51 µM (inactive)	25.3 µM (inactive)	> 100 µM (inactive)	> 57.4 µM (inactive)	> 100 µM (inactive)	> 100 µM (inactive)	> 100 µM (inactive)	> 100 µM (inactive)	> 66.1 µM (inactive)	2.96 µM (inactive)
C=C1c2nc3ccccc3n2C=C(c2ccc(C)cc2)N1c1ccccc1	3.48 µM (inactive)	15.1 µM (inactive)	1.85 µM (inactive)	6.49 µM (inactive)	27.1 µM (inactive)	1.11 µM (active)	1.1 µM (active)	4.92 µM (inactive)	0.508 µM (active)	4.41 µM (inactive)	2.43 µM (inactive)	2.88 µM (inactive)	1.79 µM (inactive)	2.38 µM (inactive)	20.7 µM (inactive)	5.58 µM (inactive)	4.49 µM (inactive)	4.04 µM (inactive)	2.86 µM (inactive)
O=C(CCc1ccc(O)c(O)c1)NCCc1ccc(O)c(O)c1	18.6 µM (inactive)	> 100 µM (inactive)	26.8 µM (inactive)	> 100 µM (inactive)	> 100 µM (inactive)	31.7 µM (inactive)	> 100 µM (inactive)	25.6 µM (inactive)	18.1 µM (inactive)	57.7 µM (inactive)	> 100 µM (inactive)	> 100 µM (inactive)	> 100 µM (inactive)	94.2 µM (inactive)	> 100 µM (inactive)	> 100 µM (inactive)	83.9 µM (inactive)	> 100 µM (inactive)	> 100 µM (inactive)
CC(=O)O[C@@H]1[C@H](C(C)C)[C@@H](OC(C)=O)C/C(C)=C/CC[C@]2(C)O[C@@H]12	> 100 µM (inactive)	> 100 µM (inactive)	> 100 µM (inactive)	> 100 µM (inactive)	> 100 µM (inactive)	> 100 µM (inactive)	> 100 µM (inactive)	> 100 µM (inactive)	> 100 µM (inactive)	> 100 µM (inactive)	> 100 µM (inactive)	> 100 µM (inactive)	> 100 µM (inactive)	> 100 µM (inactive)	> 100 µM (inactive)	> 100 µM (inactive)	> 100 µM (inactive)	> 100 µM (inactive)	> 100 µM (inactive)
O=C(Nc1ccc(Cl)cc1)c1cc(S(=O)(=O)NC2=Nc3ccc(Cl)cc3C(c3ccccc3)N2)c(SSc2cc(Cl)c(C(=O)Nc3ccc(Cl)cc3)cc2S(=O)(=O)NC2=Nc3ccc(Cl)cc3C(c3ccccc3)N2)cc1Cl (stereo not given)	> 100 µM (inactive)	> 100 µM (inactive)	3.37 µM (inactive)	> 100 µM (inactive)	83.4 µM (inactive)	46.8 µM (inactive)	> 100 µM (inactive)	24.3 µM (inactive)	> 100 µM (inactive)	25.9 µM (inactive)	> 100 µM (inactive)	> 100 µM (inactive)	> 100 µM (inactive)	> 100 µM (inactive)	83.4 µM (inactive)	> 100 µM (inactive)	> 100 µM (inactive)	> 100 µM (inactive)	> 90.4 µM (inactive)
C[C@]12C=CC(=O)C=C1CC[C@@H]1[C@@H]2CC[C@@]2(C)[C@H]1CC[C@]2(O)C(N)=O	> 100 µM (inactive)	> 100 µM (inactive)	> 100 µM (inactive)	> 100 µM (inactive)	> 100 µM (inactive)	> 100 µM (inactive)	> 100 µM (inactive)	> 100 µM (inactive)	> 100 µM (inactive)	> 100 µM (inactive)	> 100 µM (inactive)	> 100 µM (inactive)	> 100 µM (inactive)	> 100 µM (inactive)	> 100 µM (inactive)	> 100 µM (inactive)	> 100 µM (inactive)	> 100 µM (inactive)	> 100 µM (inactive)
CCOc1cc(NC(C)=O)ccc1C(=O)NN1C(=O)C(Cl)C1c1ccccc1 (stereo not given)	14.6 µM (inactive)	16.2 µM (inactive)	14.1 µM (inactive)	20.5 µM (inactive)	12.9 µM (inactive)	5.32 µM (inactive)	17.3 µM (inactive)	13.2 µM (inactive)	13.8 µM (inactive)	3.68 µM (inactive)	12.7 µM (inactive)	16 µM (inactive)	25.1 µM (inactive)	14.7 µM (inactive)	17.4 µM (inactive)	16.9 µM (inactive)	14.3 µM (inactive)	15.1 µM (inactive)	11 µM (inactive)
NNC(=O)c1c(Cl)c(Cl)c(Cl)c(Cl)c1-c1nc2ccccc2[nH]1	18.5 µM (inactive)	17.1 µM (inactive)	4.7 µM (inactive)	4.29 µM (inactive)	18.5 µM (inactive)	3.25 µM (inactive)	6.76 µM (inactive)	21.3 µM (inactive)	2.94 µM (inactive)	4.66 µM (inactive)	16.8 µM (inactive)	11.8 µM (inactive)	6.34 µM (inactive)	6.64 µM (inactive)	36.7 µM (inactive)	15.8 µM (inactive)	6.41 µM (inactive)	19.6 µM (inactive)	10.4 µM (inactive)
COc1cc2c(cc1OC)C1Cc3ccccc3CCN1CC2 (stereo not given)	50 µM (inactive)	> 100 µM (inactive)	> 100 µM (inactive)	> 100 µM (inactive)	36.1 µM (inactive)	62.1 µM (inactive)	> 100 µM (inactive)	> 100 µM (inactive)	> 100 µM (inactive)	35.1 µM (inactive)	60.4 µM (inactive)	> 100 µM (inactive)	> 100 µM (inactive)	> 100 µM (inactive)	> 100 µM (inactive)	> 100 µM (inactive)	> 100 µM (inactive)	> 100 µM (inactive)	> 100 µM (inactive)
COCC(=O)OC1CCn2c1nc1c2C(=O)C(C)=C(NC(C)=O)C1=N (stereo not given)	3.03 µM (inactive)	7.71 µM (inactive)	2.9 µM (inactive)	15.6 µM (inactive)	3.57 µM (inactive)	2.63 µM (inactive)	14.2 µM (inactive)	3.27 µM (inactive)	1.82 µM (inactive)	2.34 µM (inactive)	18.5 µM (inactive)	14 µM (inactive)	3.99 µM (inactive)	2.03 µM (inactive)	9.91 µM (inactive)	4.59 µM (inactive)	2.15 µM (inactive)	17.9 µM (inactive)	1.66 µM (inactive)
CCCc1nc(Cl)nc(Cl)c1Cl	0.127 µM (active)	0.611 µM (active)	0.189 µM (active)	0.908 µM (active)	0.0104 µM (active)	< 0.0343 µM (active)	0.543 µM (active)	0.665 µM (active)	0.0234 µM (active)	0.065 µM (active)	2.35 µM (inactive)	0.505 µM (active)	0.32 µM (active)	0.129 µM (active)	0.817 µM (active)	0.472 µM (active)	0.291 µM (active)	1.16 µM (inactive)	0.703 µM (active)
CCCCOc1ccc(S(=O)(=O)/N=C(\NN)Nc2ccc(Cl)cc2)cc1	17.1 µM (inactive)	69.7 µM (inactive)	31 µM (inactive)	20.4 µM (inactive)	25.2 µM (inactive)	31.7 µM (inactive)	32.7 µM (inactive)	20.2 µM (inactive)	32.3 µM (inactive)	23.3 µM (inactive)	29.6 µM (inactive)	16.4 µM (inactive)	24.5 µM (inactive)	20.8 µM (inactive)	21 µM (inactive)	43.7 µM (inactive)	> 100 µM (inactive)	53.5 µM (inactive)	> 100 µM (inactive)
CCN(CC)C(=O)CCNC(C)Cc1c[nH]c2ccccc12 (stereo not given)	> 100 µM (inactive)	> 100 µM (inactive)	> 100 µM (inactive)	> 100 µM (inactive)	96.8 µM (inactive)	> 100 µM (inactive)	> 100 µM (inactive)	> 100 µM (inactive)	> 100 µM (inactive)	> 100 µM (inactive)	> 100 µM (inactive)	> 100 µM (inactive)	> 100 µM (inactive)	> 100 µM (inactive)	> 100 µM (inactive)	> 100 µM (inactive)	> 100 µM (inactive)	> 100 µM (inactive)	> 100 µM (inactive)
O=C(Cc1ccccc1)N[C@@H]1COC(=O)C2CCCN2C(=O)[C@@H]2CCCN2C1=O (stereo not given in full) (PhAc-[dS]-Pro-[ξP]; ester 1-C)	> 100 µM (inactive)	> 100 µM (inactive)	> 100 µM (inactive)	> 100 µM (inactive)	> 100 µM (inactive)	–	> 100 µM (inactive)	> 100 µM (inactive)	> 100 µM (inactive)	> 100 µM (inactive)	> 100 µM (inactive)	> 100 µM (inactive)	> 100 µM (inactive)	> 100 µM (inactive)	> 100 µM (inactive)	> 100 µM (inactive)	> 100 µM (inactive)	> 100 µM (inactive)	> 100 µM (inactive)
